Molecules are shown by their SMILES.

Our source for the IC50 values is patent publication US8613914B2, “Peptidomimetic sulfamide compounds and antiviral uses thereof” (Novartis AG, priority 2009, dated 2013).

This experiment addresses HCV NS3-4A serine protease (full-length NS3-4A protein) (Hepatitis C virus genotype 1a (isolate 1) (HCV), UniProt P26664). The experiment is described as follows: HCV NS3-4A protease assay. In kind it is biochemical, HCV genotype 1a. To be noted: strain HCV-1, fluorogenic peptide substrate, read-out: Protease assay Ex. 12 IC50. The method, then:
The inhibitory activity of certain compounds of Table A against HCV NS3-4A serine protease is determined in a homogenous assay using the full-length NS3-4A protein (genotype 1a, strain HCV-1) and a commercially available internally-quenched fluorogenic peptide substrate as described by Taliani, M., et al. 1996 Anal. Biochem. 240:60-67, which is incorporated by reference in its entirety.

HCV NS3-4A serine protease (full-length NS3-4A protein), sequence (P26664 1027-1657): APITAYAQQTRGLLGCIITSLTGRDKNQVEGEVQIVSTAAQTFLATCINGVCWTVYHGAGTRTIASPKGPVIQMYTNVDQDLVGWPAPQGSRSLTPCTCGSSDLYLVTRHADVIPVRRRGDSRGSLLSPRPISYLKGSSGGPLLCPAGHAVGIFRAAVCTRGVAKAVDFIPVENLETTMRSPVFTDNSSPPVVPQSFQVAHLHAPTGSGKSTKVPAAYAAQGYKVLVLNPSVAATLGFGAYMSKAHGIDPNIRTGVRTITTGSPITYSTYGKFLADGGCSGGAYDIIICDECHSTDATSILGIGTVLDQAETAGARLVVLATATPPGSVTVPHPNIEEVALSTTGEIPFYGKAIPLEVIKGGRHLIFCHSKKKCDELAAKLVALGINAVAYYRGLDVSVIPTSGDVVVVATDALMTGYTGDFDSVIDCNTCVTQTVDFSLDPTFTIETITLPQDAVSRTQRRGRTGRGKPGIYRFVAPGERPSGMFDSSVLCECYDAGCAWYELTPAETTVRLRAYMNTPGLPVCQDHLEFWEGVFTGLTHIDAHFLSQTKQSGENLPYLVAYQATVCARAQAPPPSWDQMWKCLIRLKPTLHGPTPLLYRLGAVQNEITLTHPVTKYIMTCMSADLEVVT
HCV NS3-4A serine protease (full-length NS3-4A protein), sequence (P26664 1658-1711 partner): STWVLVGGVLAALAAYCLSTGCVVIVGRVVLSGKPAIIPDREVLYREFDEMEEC

As to `C=C[C@@H]1C[C@]1(NC(=O)[C@@H]1C[C@@]2(CN1C(=O)[C@@H](NC(=O)[C@@H](NC(=O)[C@@H]1CCCN1CC)C(C)(C)C)C1(C)CCOCC1)C(C)(C)C21CCC1)C(=O)NS(=O)(=O)N1CCCC1` [Compound 126, 1-ethyl-L-prolyl-N-[(1S)-2-[(5R,8S)-10,10-dimethyl-8-({(1R,2S)-1-[(pyrrolidin-1-ylsulfonyl)carbamoyl]-2-vinylcyclopropyl}carbamoyl)-7-azadispiro[3.0.4.1]dec-7-yl]-1-(4-methyltetrahydro-2H-pyran-4-yl)-2-oxoethyl]-3-methyl-L-valinamide], the concentration for half-maximal inhibition (IC50) is 6 nM.

For `C=C[C@@H]1C[C@]1(NC(=O)[C@@H]1C[C@@]2(CN1C(=O)[C@@H](NC(=O)[C@@H](NC(=O)[C@@H]1CCCCN1C(C)C)C1CCCCC1)C(C)(C)C)C(C)(C)C21CCC1)C(=O)NS(=O)(=O)N(C)CCC` [Compound 112, (5R,8S)-7-[(2S)-2-{[(2S)-2-cyclohexyl-2-({[(2S)-1-isopropylpiperidin-2-yl]carbonyl}amino)acetyl]amino}-3,3-dimethylbutanoyl]-10,10-dimethyl-N-[(1R,2S)-1-({[methyl(propyl)amino]sulfonyl}carbamoyl)-2-vinylcyclopropyl]-7-azadispiro[3.0.4.1]decane-8-carboxamide], the half-inhibitory concentration (IC50) came to 1.4 nM.

Turning to `C=C[C@@H]1C[C@]1(NC(=O)[C@@H]1C[C@@]2(CN1C(=O)[C@@H](NC(=O)[C@@H](NC(=O)c1c[nH]c3ccccc13)C1CCCCC1)C(C)(C)C)C(C)(C)C21CCC1)C(=O)NS(=O)(=O)N1CCCC1` [Compound 189, (5R,8S)-7-[(2S)-2-({cyclohexyl[(1H-indol-3-ylcarbonyl)amino]acetyl}amino)-3,3-dimethylbutanoyl]-10,10-dimethyl-N-{(1R,2S)-1-[(pyrrolidin-1-ylsulfonyl)carbamoyl]-2-vinylcyclopropyl}-7-azadispiro[3.0.4.1]decane-8-carboxamide], the IC50 stood at 25 nM.

Take `C=C[C@@H]1C[C@]1(NC(=O)[C@@H]1C[C@@]2(CN1C(=O)[C@@H](NC(=O)[C@@H](NC(=O)[C@@H]1CCCN(CC)C1)C(C)(C)C)C(C)(C)C)C(C)(C)C21CCC1)C(=O)NS(=O)(=O)N1CCCC1` [Compound 4, (5R,8S)-7-[(2S)-2-{[(2S)-2-({[(3R)-1-ethylpiperidin-3-yl]carbonyl}amino)-3,3-dimethylbutanoyl]amino}-3,3-dimethylbutanoyl]-10,10-dimethyl-N-{(1R,2S)-1-[(pyrrolidin-1-ylsulfonyl)carbamoyl]-2-vinylcyclopropyl}-7-azadispiro[3.0.4.1]decane-8-carboxamide]: the IC50 turned out to be 35 nM.

Turning to `C=C[C@@H]1C[C@]1(NC(=O)[C@@H]1C[C@@]2(CN1C(=O)[C@@H](NC(=O)[C@@H](NC(=O)[C@@H]1CCCN1CC)C1CCCCC1)C(C)(C)C)C(C)(C)C21CCC1)C(=O)NS(=O)(=O)N(C)CCC` [Compound 98, (5R,8S)-7-[(2S)-2-{[(2S)-2-cyclohexyl-2-({[(2S)-1-ethylpyrrolidin-2-yl]carbonyl}amino)acetyl]amino}-3,3-dimethylbutanoyl]-10,10-dimethyl-N-[(1R,2S)-1-({[methyl(propyl)amino]sulfonyl}carbamoyl)-2-vinylcyclopropyl]-7-azadispiro[3.0.4.1]decane-8-carboxamide], the IC50 stood at 7 nM.

Consider `C=C[C@@H]1C[C@]1(NC(=O)[C@@H]1C[C@@]2(CN1C(=O)[C@@H](NC(=O)[C@@H](NC(=O)Cc1ccncc1)C1CCCCC1)C(C)(C)C)C(C)(C)C21CCC1)C(=O)NS(=O)(=O)N1CCCC1` [Compound 175, (5R,8S)-7-[(2S)-2-({cyclohexyl[(pyridin-4-ylacetyl)amino]acetyl}amino)-3,3-dimethylbutanoyl]-10,10-dimethyl-N-{(1R,2S)-1-[(pyrrolidin-1-ylsulfonyl)carbamoyl]-2-vinylcyclopropyl}-7-azadispiro[3.0.4.1]decane-8-carboxamide], for which the IC50 is 10 nM.

Turning to `C=C[C@@H]1C[C@]1(NC(=O)[C@@H]1C[C@@]2(CN1C(=O)[C@@H](NC(=O)C(Nc1cccnc1)C(C)(C)C)C(C)(C)C)C(C)(C)C21CCC1)C(=O)NS(=O)(=O)N1CCCC1` (stereo partly drawn) [Compound 51, (5R,8S)-7-[(2S)-2-{[3,3-dimethyl-2-(pyridin-3-ylamino)butanoyl]amino}-3,3-dimethylbutanoyl]-10,10-dimethyl-N-{(1R,2S)-1-[(pyrrolidin-1-ylsulfonyl)carbamoyl]-2-vinylcyclopropyl}-7-azadispiro[3.0.4.1]decane-8-carboxamide], the IC50 was 1150 nM.

Consider `C=C[C@@H]1C[C@]1(NC(=O)[C@@H]1C[C@@]2(CN1C(=O)[C@@H](NC(=O)[C@@H](NC(=O)CC1CCCCO1)C1CCCCC1)C(C)(C)C)C(C)(C)C21CCC1)C(=O)NS(=O)(=O)N1CCCC1` (stereo partly drawn) [Compound 179, (5R,8S)-7-[(2S)-2-({cyclohexyl[(tetrahydro-2H-pyran-2-ylacetyl)amino]acetyl}amino)-3,3-dimethylbutanoyl]-10,10-dimethyl-N-{(1R,2S)-1-[(pyrrolidin-1-ylsulfonyl)carbamoyl]-2-vinylcyclopropyl}-7-azadispiro[3.0.4.1]decane-8-carboxamide], for which the IC50 turned out to be 25 nM.

For the molecule `[2H]C([2H])([2H])C([2H])([2H])N(C([2H])([2H])C([2H])([2H])[2H])S(=O)(=O)NC(=O)[C@@]1(NC(=O)[C@@H]2C[C@@]3(CN2C(=O)[C@@H](NC(=O)[C@@H](NC(=O)[C@@H]2CCCCN2C(C)C)C2CCCCC2)C(C)(C)C)C(C)(C)C32CCC2)C[C@H]1C=C` [Compound 149, (5R,8S)-7-[(2S)-2-{[(2S)-2-cyclohexyl-2-({[(2S)-1-isopropylpiperidin-2-yl]carbonyl}amino)acetyl]amino}-3,3-dimethylbutanoyl]-N-[(1R,2S)-1-{[(d10-diethylamino)sulfonyl]carbamoyl}-2-vinylcyclopropyl]-10,10-dimethyl-7-azadispiro[3.0.4.1]decane-8-carboxamide-d10], the IC50 came out at 1.5 nM.

For the molecule `C=C[C@@H]1C[C@]1(NC(=O)[C@@H]1C[C@@]2(CN1C(=O)[C@@H](NC(=O)[C@@H](NC(=O)[C@@H]1CCCCN1C)C1CCCCC1)C(C)(C)C)C(C)(C)C21CCC1)C(=O)NS(=O)(=O)N(CC)CC` [Compound 118, (5R,8S)-7-[(2S)-2-{[(2S)-2-cyclohexyl-2-({[(2S)-1-methylpiperidin-2-yl]carbonyl}amino)acetyl]amino}-3,3-dimethylbutanoyl]-N-[(1R,2S)-1-{[(diethylamino)sulfonyl]carbamoyl}-2-vinylcyclopropyl]-10,10-dimethyl-7-azadispiro[3.0.4.1]decane-8-carboxamide], the IC50 was determined as 4.5 nM.

On to `C=C[C@@H]1C[C@]1(NC(=O)[C@@H]1C[C@@]2(CN1C(=O)[C@@H](NC(=O)[C@@H](NC(=O)C(C)(C)N1CCCC1)C(C)(C)C)C(C)(C)C)C(C)(C)C21CCC1)C(=O)NS(=O)(=O)N1CCCC1` [Compound 10, (5R,8S)-7-[(2S)-2-({(2S)-3,3-dimethyl-2-[(2-methyl-2-pyrrolidin-1-ylpropanoyl)amino]butanoyl}amino)-3,3-dimethylbutanoyl]-10,10-dimethyl-N-{(1R,2S)-1-[(pyrrolidin-1-ylsulfonyl)carbamoyl]-2-vinylcyclopropyl}-7-azadispiro[3.0.4.1]decane-8-carboxamide], for which the IC50 came to 65 nM.

With `C=C[C@@H]1C[C@]1(NC(=O)[C@@H]1C[C@@]2(CN1C(=O)[C@@H](NC(=O)[C@@H](NC(=O)[C@H]1CCCCN1C(C)C)C1CCCCC1)C(C)(C)C)C(C)(C)C21CCC1)C(=O)NS(=O)(=O)N(CC)CCC` [Compound 137, (5R,8S)-7-[(2S)-2-{[(2S)-2-cyclohexyl-2-({[(2R)-1-isopropylpiperidin-2-yl]carbonyl}amino)acetyl]amino}-3,3-dimethylbutanoyl]-N-[(1R,2S)-1-({[ethyl(propyl)amino]sulfonyl}carbamoyl)-2-vinylcyclopropyl]-10,10-dimethyl-7-azadispiro[3.0.4.1]decane-8-carboxamide], the IC50 is 3.5 nM.

In the case of `C=C[C@@H]1C[C@]1(NC(=O)[C@@H]1C[C@@]2(CN1C(=O)[C@@H](NC(=O)[C@@H](NC(=O)c1[nH]c(C)c(C)c1C(C)=O)C(C)(C)C)C(C)(C)C)C(C)(C)C21CCC1)C(=O)NS(=O)(=O)N1CCCC1` [Compound 161, (5R,8S)-7-[(2S)-2-{[(2S)-2-{[(3-acetyl-4,5-dimethyl-1H-pyrrol-2-yl)carbonyl]amino}-3,3-dimethylbutanoyl]amino}-3,3-dimethylbutanoyl]-10,10-dimethyl-N-{(1R,2S)-1-[(pyrrolidin-1-ylsulfonyl)carbamoyl]-2-vinylcyclopropyl}-7-azadispiro[3.0.4.1]decane-8-carboxamide], the concentration for half-maximal inhibition (IC50) worked out at 65 nM.

As to `CC[C@@H]1C[C@]1(NC(=O)[C@@H]1C[C@@]2(CN1C(=O)[C@@H](NC(=O)[C@@H](NC(=O)[C@@H]1CCCCN1C(C)C)C1CCCCC1)C(C)(C)C)C(C)(C)C21CCC1)C(=O)NS(=O)(=O)N(CC)CC` [Compound 203, (5R,8S)-7-[(2S)-2-{[(2S)-2-cyclohexyl-2-({[(2S)-1-isopropylpiperidin-2-yl]carbonyl}amino)acetyl]amino}-3,3-dimethylbutanoyl]-N-(1-{[(diethylamino)sulfonyl]carbamoyl}-2-ethylcyclopropyl)-10,10-dimethyl-7-azadispiro[3.0.4.1]decane-8-carboxamide], the IC50 amounted to 8 nM.

For `C=C[C@@H]1C[C@]1(NC(=O)[C@@H]1C[C@@]2(CN1C(=O)[C@@H](NC(=O)[C@@H](NC(=O)[C@H]1CCCCN1C(C)C)C1CCCCC1)C(C)(C)C)C(C)(C)C21CCC1)C(=O)NS(=O)(=O)N(CC)CC` [Compound 65, (5R,8S)-7-[(2S)-2-{[(2S)-2-cyclohexyl-2-({[(2R)-1-isopropylpiperidin-2-yl]carbonyl}amino)acetyl]amino}-3,3-dimethylbutanoyl]-N-[(1R,2S)-1-{[(diethylamino)sulfonyl]carbamoyl}-2-vinylcyclopropyl]-10,10-dimethyl-7-azadispiro[3.0.4.1]decane-8-carboxamide], the IC50 was determined as 4.5 nM.

The IC50 is the midpoint of a concentration-inhibition curve.
